What all share (assay): KINOMEscan
What all share (format): binding
Common to all, as to conditions: read-out: % control activity remaining

The target in one assay is T1, PRKD2 (Homo sapiens, UniProt Q9BZL6).
T1 construct: purchased Eurofins DiscoverX KINOMEscan
T1 sequence (Q9BZL6 1-878): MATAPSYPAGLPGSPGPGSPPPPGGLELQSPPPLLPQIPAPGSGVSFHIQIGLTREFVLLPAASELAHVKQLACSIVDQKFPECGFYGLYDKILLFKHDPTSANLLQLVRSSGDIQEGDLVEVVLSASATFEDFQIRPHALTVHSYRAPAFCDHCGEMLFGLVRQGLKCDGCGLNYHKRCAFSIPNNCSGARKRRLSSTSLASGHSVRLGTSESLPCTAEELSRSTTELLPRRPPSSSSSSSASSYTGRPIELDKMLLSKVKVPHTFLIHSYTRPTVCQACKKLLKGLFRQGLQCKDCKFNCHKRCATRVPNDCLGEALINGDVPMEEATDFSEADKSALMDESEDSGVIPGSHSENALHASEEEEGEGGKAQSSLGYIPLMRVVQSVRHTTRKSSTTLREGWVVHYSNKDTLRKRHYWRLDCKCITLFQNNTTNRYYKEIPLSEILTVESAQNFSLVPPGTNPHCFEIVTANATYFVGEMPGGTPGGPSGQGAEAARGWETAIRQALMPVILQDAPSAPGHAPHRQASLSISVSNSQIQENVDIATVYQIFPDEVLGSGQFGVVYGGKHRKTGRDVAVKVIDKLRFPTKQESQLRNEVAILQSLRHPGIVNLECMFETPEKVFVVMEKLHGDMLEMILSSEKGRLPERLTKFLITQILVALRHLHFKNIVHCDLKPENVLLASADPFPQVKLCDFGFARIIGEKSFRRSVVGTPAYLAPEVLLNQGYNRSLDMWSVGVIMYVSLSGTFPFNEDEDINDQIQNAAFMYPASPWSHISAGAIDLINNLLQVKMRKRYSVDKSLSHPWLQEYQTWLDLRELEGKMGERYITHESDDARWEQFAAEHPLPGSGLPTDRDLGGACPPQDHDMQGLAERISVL

The target of the next assay is T2, SRPK1 (Homo sapiens, UniProt Q96SB4).
T2 construct: purchased Eurofins DiscoverX KINOMEscan
T2 sequence (Q96SB4 whole entry): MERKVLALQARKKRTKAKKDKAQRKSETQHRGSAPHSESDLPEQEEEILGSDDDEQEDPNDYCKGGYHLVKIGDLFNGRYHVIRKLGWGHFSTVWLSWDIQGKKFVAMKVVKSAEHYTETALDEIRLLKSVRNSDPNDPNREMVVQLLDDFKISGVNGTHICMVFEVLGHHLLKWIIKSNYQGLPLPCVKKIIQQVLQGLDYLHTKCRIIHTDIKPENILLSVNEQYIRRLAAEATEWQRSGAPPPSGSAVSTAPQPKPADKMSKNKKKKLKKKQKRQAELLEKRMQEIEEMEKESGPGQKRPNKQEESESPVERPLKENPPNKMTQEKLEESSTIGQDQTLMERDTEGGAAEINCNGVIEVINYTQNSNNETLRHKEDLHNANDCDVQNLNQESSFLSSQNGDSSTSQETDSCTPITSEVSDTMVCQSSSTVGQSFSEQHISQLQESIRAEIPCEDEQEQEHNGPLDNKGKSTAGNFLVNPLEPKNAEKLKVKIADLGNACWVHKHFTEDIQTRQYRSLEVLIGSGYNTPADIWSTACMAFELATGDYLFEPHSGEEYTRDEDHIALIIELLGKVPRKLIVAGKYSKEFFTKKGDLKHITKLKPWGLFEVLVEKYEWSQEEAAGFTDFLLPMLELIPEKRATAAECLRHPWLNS

A further assay deals with T3, NEK2 (Homo sapiens, UniProt P51955).
T3 construct: purchased Eurofins DiscoverX KINOMEscan
T3 sequence (P51955 1-445): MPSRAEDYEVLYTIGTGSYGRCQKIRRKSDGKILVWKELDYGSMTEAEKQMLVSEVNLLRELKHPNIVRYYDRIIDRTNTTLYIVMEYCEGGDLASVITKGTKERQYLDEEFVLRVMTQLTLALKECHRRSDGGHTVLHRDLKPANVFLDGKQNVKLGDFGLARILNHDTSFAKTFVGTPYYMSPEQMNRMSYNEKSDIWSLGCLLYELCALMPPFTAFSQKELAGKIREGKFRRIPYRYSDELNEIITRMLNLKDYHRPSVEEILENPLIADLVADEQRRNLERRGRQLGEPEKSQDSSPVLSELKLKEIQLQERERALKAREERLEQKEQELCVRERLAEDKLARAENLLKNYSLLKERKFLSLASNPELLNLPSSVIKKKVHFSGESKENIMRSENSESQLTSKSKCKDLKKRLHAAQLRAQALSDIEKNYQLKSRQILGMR

The target of another assay is T4, FLT3-autoinhibited (Homo sapiens, UniProt P36888).
T4 construct: purchased Eurofins DiscoverX KINOMEscan
T4 sequence (P36888 564-993 limits assumed): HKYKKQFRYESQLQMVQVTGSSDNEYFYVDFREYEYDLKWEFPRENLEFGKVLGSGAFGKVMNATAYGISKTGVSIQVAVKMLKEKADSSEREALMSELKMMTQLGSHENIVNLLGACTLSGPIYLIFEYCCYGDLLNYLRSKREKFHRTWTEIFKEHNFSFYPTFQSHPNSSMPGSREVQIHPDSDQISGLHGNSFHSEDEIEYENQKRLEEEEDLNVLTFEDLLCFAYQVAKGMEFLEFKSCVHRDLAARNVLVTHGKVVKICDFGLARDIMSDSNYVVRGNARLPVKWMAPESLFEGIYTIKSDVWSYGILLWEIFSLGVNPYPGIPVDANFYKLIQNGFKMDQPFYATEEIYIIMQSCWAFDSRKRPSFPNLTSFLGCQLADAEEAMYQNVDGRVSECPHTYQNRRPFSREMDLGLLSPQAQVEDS

The target of the next assay is T5, CDK4-cyclinD3 (Homo sapiens, UniProt P11802).
T5 construct: purchased Eurofins DiscoverX KINOMEscan
T5 sequence (P11802 whole entry): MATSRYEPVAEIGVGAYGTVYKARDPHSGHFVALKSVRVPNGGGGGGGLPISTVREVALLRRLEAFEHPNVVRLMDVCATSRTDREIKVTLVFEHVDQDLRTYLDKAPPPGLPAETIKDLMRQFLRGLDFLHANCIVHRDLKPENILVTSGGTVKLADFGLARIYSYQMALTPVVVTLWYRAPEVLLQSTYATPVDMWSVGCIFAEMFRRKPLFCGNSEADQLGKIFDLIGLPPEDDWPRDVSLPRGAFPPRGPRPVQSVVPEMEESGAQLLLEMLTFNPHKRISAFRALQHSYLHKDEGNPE
T5 sequence (P30281 whole entry partner): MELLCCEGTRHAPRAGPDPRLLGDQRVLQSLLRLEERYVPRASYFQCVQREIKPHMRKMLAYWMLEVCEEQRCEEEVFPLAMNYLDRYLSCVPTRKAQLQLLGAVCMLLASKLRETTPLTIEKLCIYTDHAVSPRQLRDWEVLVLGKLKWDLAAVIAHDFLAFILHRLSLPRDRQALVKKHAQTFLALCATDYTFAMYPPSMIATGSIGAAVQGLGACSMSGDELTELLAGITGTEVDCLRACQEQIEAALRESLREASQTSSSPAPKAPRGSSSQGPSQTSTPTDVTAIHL

Another assay has as its target T6, MET (Homo sapiens, UniProt P08581).
T6 construct: purchased Eurofins DiscoverX KINOMEscan

In another assay the target is T7, KIT(V559D) (Homo sapiens, UniProt P10721, V559D).
T7 construct: purchased Eurofins DiscoverX KINOMEscan
T7 sequence (P10721 26-976 V559D): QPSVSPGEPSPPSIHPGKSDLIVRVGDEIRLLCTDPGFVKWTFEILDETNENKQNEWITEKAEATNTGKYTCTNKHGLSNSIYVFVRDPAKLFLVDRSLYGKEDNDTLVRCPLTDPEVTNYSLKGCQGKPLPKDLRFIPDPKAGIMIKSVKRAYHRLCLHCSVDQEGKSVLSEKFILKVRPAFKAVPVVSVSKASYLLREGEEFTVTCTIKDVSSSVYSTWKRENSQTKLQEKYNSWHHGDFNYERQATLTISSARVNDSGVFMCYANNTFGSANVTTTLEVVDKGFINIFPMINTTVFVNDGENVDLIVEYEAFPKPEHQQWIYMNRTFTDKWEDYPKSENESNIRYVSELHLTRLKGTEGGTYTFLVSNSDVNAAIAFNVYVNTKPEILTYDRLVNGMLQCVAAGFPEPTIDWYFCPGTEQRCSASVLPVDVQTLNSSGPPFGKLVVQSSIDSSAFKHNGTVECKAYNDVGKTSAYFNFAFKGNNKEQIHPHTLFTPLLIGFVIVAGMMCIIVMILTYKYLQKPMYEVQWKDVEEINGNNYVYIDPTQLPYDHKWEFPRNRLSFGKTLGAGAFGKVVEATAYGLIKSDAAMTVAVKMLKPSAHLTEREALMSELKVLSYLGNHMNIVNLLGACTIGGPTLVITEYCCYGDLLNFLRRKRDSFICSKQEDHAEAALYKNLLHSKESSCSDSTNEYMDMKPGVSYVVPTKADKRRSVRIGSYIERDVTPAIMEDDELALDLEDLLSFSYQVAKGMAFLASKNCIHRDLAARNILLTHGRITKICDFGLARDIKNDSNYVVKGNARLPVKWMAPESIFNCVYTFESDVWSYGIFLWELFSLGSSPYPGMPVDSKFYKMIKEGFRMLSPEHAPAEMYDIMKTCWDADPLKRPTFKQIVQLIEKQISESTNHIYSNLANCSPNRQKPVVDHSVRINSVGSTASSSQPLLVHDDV

Assay [1] has as its target T8, JAK1(JH1domain-catalytic) (Homo sapiens, UniProt P23458).
T8 construct: JAK1(JH1domain-catalytic); purchased Eurofins DiscoverX KINOMEscan

The target in the next assay is T9, ROCK1 (Homo sapiens, UniProt Q13464).
T9 construct: purchased Eurofins DiscoverX KINOMEscan
T9 sequence (Q13464 whole entry): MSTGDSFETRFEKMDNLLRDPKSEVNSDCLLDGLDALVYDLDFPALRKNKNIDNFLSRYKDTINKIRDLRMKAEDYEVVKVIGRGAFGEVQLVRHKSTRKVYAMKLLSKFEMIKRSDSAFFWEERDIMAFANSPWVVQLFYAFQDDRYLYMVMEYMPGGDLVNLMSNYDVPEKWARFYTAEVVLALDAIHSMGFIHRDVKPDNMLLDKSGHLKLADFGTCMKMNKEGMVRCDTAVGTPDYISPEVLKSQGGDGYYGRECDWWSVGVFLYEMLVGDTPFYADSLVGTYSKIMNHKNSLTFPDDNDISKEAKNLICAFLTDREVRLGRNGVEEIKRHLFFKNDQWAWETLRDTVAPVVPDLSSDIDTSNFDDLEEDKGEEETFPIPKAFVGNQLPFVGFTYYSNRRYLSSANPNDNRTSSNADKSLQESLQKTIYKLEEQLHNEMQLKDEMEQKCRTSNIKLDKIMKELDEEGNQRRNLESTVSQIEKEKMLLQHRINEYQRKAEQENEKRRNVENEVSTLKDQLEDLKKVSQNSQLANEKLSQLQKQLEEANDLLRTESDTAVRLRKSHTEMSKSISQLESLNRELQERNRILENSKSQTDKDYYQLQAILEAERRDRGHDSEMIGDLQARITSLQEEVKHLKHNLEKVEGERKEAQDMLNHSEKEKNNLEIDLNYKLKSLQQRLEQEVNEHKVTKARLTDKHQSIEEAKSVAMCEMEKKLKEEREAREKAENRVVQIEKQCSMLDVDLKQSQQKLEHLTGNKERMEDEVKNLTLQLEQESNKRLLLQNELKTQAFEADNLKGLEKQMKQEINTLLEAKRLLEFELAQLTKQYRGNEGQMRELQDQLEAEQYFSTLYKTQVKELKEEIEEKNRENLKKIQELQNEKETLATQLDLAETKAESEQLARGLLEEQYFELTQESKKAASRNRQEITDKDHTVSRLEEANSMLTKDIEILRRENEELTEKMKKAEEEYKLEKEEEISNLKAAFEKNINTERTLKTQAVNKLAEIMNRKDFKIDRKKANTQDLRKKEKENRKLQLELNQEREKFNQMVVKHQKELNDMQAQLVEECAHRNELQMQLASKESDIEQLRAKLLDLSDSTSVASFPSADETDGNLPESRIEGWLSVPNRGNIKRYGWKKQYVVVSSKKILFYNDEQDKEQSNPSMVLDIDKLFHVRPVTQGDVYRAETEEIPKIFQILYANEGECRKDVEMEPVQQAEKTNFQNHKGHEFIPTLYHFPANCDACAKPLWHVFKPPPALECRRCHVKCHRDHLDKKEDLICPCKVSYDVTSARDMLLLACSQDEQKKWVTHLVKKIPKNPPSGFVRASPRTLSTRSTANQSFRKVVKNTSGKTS

The structures appear in SMILES notation.

T6 sequence (P08581 25-1390): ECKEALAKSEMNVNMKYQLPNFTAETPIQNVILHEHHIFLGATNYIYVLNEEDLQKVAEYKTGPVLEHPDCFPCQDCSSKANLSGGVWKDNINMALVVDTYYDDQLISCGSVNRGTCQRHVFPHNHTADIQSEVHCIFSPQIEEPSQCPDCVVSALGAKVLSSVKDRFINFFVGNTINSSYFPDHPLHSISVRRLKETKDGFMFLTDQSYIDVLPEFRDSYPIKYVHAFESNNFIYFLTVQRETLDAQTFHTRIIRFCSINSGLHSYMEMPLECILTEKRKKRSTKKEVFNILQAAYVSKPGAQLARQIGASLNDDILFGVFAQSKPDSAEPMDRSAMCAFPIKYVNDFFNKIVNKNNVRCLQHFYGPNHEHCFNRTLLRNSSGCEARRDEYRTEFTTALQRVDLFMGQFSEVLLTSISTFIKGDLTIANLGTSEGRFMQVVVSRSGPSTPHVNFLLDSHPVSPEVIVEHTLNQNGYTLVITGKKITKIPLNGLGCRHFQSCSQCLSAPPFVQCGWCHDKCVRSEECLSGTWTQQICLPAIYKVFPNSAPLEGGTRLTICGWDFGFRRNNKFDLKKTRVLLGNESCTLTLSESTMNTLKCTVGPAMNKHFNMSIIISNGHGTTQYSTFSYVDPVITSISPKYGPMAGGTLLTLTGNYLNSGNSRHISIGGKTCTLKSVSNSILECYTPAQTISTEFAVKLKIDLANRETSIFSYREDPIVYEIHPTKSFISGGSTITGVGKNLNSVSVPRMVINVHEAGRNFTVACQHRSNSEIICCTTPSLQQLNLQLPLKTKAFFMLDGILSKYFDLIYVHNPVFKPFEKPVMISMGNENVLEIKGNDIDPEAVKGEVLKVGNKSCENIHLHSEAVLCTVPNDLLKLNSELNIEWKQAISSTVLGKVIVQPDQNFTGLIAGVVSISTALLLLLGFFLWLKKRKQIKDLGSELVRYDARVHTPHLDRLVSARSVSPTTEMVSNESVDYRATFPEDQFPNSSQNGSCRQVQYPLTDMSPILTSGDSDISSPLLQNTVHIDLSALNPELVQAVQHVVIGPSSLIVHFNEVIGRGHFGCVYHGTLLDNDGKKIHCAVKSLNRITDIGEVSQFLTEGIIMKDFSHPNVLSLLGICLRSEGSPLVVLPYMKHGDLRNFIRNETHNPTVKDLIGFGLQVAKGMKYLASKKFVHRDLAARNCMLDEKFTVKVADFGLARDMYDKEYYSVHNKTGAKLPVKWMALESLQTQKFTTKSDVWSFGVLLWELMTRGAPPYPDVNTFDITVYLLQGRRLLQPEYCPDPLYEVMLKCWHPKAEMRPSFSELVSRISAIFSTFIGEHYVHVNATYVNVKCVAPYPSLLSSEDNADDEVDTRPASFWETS

`Clc1cc(NCC2CC2)c2ncc(-c3ccc4[nH]ncc4c3)n2n1` [compound 2, 6-Chloro-N-(cyclopropylmethyl)-3-(1H-indazol-5-yl)imidazo[1,2-b]pyridazin-8-amine]: the remaining binding at 1 µM on PRKD2 was 100%; on SRPK1, 100%; on NEK2, 100%; on FLT3-autoinhibited, 42%; on CDK4-cyclinD3, 78%; on MET it was 90%. Also, the remaining binding at 1 µM stood at 0.45% at KIT(V559D), 100% in [1] and 36% on ROCK1.

For the molecule `O=C(CN1CCOCC1)N[C@H]1CC[C@H](Nc2cc(Cl)nn3c(-c4ccc5[nH]ncc5c4)cnc23)CC1` [compound 26], the remaining binding at 1 µM on PRKD2 was determined as 100%; on SRPK1 it was 79%; on NEK2, 92%; on FLT3-autoinhibited it was 0.65%; on CDK4-cyclinD3, 100%; on MET it was 100%. Also, the remaining binding at 1 µM on KIT(V559D) was 0.05%; in [1], 100%; on ROCK1, 22%.

`CN1CCC(CNc2cc(Cl)nn3c(-c4cc5nc(Nc6ccccc6)[nH]c5cc4F)cnc23)CC1` [compound 31, 6-Chloro-3-(6-fluoro-2-(phenylamino)-1H-benzo[d]imidazol-5-yl)-N-((1-methylpiperidin-4-yl)methyl)imidazo[1,2-b]pyridazin-8-amine]: the remaining binding at 1 µM on PRKD2 was determined as 93%; on SRPK1, 84%; on NEK2, 92%; at FLT3-autoinhibited it was 90%; at CDK4-cyclinD3 it was 97%; on MET it was 97%. Besides, the values for the remaining binding at 1 µM (on KIT(V559D); in [1]; at ROCK1) were 67%, 100% and 76%, respectively.

The values above are taken from paper PMC6437697 (Journal of Medicinal Chemistry, 2019).
